In ChEMBL document CHEMBL4804286, “3-amino-4-(4-(4 (dimethylcarbamoyl) phenyl)-1,4-diazepan-1-yl) thieno [2,3-b] pyridine-2-carboxamide for use in cancer therapy and formulations comprising the same” (2020):
Where “and” joins values, the source holds several entries; their conditions need not be identical. Identical values can stand only once. Calls of active or inactive are those of the source. The rule behind the calls is not given here.

Tests used:
[1] = target: CDK4/Cyclin D3 (Homo sapiens) (UniProt P11802+P30281); assay: Inhibition of human CDK4/cyclin D3 assessed as percent of control at 2000 nM by KINOMEscan assay relative to control; format: protein-complex assay; parameters: scale not given: the % may be the effect or the level left
[2] = target: Ribosomal protein S6 kinase alpha-4 (Homo sapiens) (UniProt O75676); assay: Inhibition of human N-terminal RPS6KA4 kinase domain assessed as percent of control at 2000 nM by KINOMEscan assay relative to control; parameters: scale not given: the % may be the effect or the level left
[3] = target: Microtubule-associated serine/threonine-protein kinase 1 (Homo sapiens) (UniProt Q9Y2H9); assay: Inhibition of human MAST1 assessed as percent of control at 2000 nM by KINOMEscan assay relative to control; parameters: scale not given: the % may be the effect or the level left
[4] = target: Serine/threonine-protein kinase PAK 2 (Homo sapiens) (UniProt Q13177); assay: Inhibition of human PAK2 assessed as percent of control at 2000 nM by KINOMEscan assay relative to control; parameters: scale not given: the % may be the effect or the level left
[5] = target: Mast/stem cell growth factor receptor Kit (Homo sapiens) (UniProt P10721); assay: Inhibition of human KIT assessed as percent of control at 2000 nM by KINOMEscan assay relative to control; parameters: scale not given: the % may be the effect or the level left
[6] = system: Mast/stem cell growth factor receptor Kit (Homo sapiens), P10721 [V559D,V654A]; assay: Inhibition of human KIT V559D/V654A double mutant assessed as percent of control at 2000 nM by KINOMEscan assay relative to control; parameters: scale not given: the % may be the effect or the level left
[7] = target: Serine/threonine-protein kinase PRP4 homolog (Homo sapiens) (UniProt Q13523); assay: Inhibition of human PRP4 assessed as percent of control at 2000 nM by KINOMEscan assay relative to control; parameters: scale not given: the % may be the effect or the level left
[8] = target: Phosphorylase b kinase gamma catalytic chain, skeletal muscle/heart isoform (Homo sapiens) (UniProt Q16816); assay: Inhibition of human PHKG1 assessed as percent of control at 2000 nM by KINOMEscan assay relative to control; parameters: scale not given: the % may be the effect or the level left
[9] = target: Receptor tyrosine-protein kinase erbB-3 (Homo sapiens) (UniProt P21860); assay: Inhibition of human ERBB3 assessed as percent of control at 2000 nM by KINOMEscan assay relative to control; parameters: scale not given: the % may be the effect or the level left
[10] = system: Tyrosine-protein kinase ABL1 (Homo sapiens), P00519 [T315I]; assay: Inhibition of non-phosphorylated human ABL1 T315I mutant assessed as percent of control at 2000 nM by KINOMEscan assay relative to control; parameters: scale not given: the % may be the effect or the level left
[11] = target: Calcium/calmodulin-dependent protein kinase kinase 2 (Homo sapiens) (UniProt Q96RR4); assay: Inhibition of human CAMKK2 assessed as percent of control at 2000 nM by KINOMEscan assay relative to control; parameters: scale not given: the % may be the effect or the level left
[12] = target: Phosphatidylinositol 4-phosphate 3-kinase C2 domain-containing subunit beta (Homo sapiens) (UniProt O00750); assay: Inhibition of human PIK3C2B assessed as percent of control at 2000 nM by KINOMEscan assay relative to control; parameters: scale not given: the % may be the effect or the level left
[13] = target: STE20/SPS1-related proline-alanine-rich protein kinase (Homo sapiens) (UniProt Q9UEW8); assay: Inhibition of human STK39 assessed as percent of control at 2000 nM by KINOMEscan assay relative to control; parameters: scale not given: the % may be the effect or the level left
[14] = target: Aurora kinase B (Homo sapiens) (UniProt Q96GD4); assay: Inhibition of human AURKB assessed as percent of control at 2000 nM by KINOMEscan assay relative to control; parameters: scale not given: the % may be the effect or the level left
[15] = target: NT-3 growth factor receptor (Homo sapiens) (UniProt Q16288); assay: Inhibition of human TRKC assessed as percent of control at 2000 nM by KINOMEscan assay relative to control; parameters: scale not given: the % may be the effect or the level left
[16] = target: High affinity nerve growth factor receptor (Homo sapiens) (UniProt P04629); assay: Inhibition of human TRKA assessed as percent of control at 2000 nM by KINOMEscan assay relative to control; parameters: scale not given: the % may be the effect or the level left
CWR22R = assay: Antitumor activity against human 22Rv1 cells expressing AR-V7 xenografted in male nude mouse assessed as suppression of tumor growth at 25 mg/kg, administered twice a day for 40 days; format: functional, organism-based
[17] = target: Mitogen-activated protein kinase 11 (Homo sapiens) (UniProt Q15759); assay: Inhibition of human p38-beta assessed as percent of control at 2000 nM by KINOMEscan assay relative to control; parameters: scale not given: the % may be the effect or the level left
[18] = target: Serine/threonine-protein kinase DCLK2 (Homo sapiens) (UniProt Q8N568); assay: Inhibition of human DCAMKL2 assessed as percent of control at 2000 nM by KINOMEscan assay relative to control; parameters: scale not given: the % may be the effect or the level left
[19] = target: Dual specificity protein kinase CLK3 (Homo sapiens) (UniProt P49761); assay: Inhibition of human CLK3 assessed as percent of control at 2000 nM by KINOMEscan assay relative to control; parameters: scale not given: the % may be the effect or the level left
[20] = target: Myosin-IIIa (Homo sapiens) (UniProt Q8NEV4); assay: Inhibition of human MYO3A assessed as percent of control at 2000 nM by KINOMEscan assay relative to control; parameters: scale not given: the % may be the effect or the level left
[21] = target: Serine/threonine-protein kinase Chk1 (Homo sapiens) (UniProt O14757); assay: Inhibition of human CHEK1 assessed as percent of control at 2000 nM by KINOMEscan assay relative to control; parameters: scale not given: the % may be the effect or the level left
[22] = target: Mitogen-activated protein kinase 1 (Homo sapiens) (UniProt P28482); assay: Inhibition of human ERK2 assessed as percent of control at 2000 nM by KINOMEscan assay relative to control; parameters: scale not given: the % may be the effect or the level left
[23] = system: Receptor-type tyrosine-protein kinase FLT3 (Homo sapiens), P36888 [D835Y]; assay: Inhibition of human FLT3 D835Y mutant assessed as percent of control at 2000 nM by KINOMEscan assay relative to control; parameters: scale not given: the % may be the effect or the level left
[24] = target: Ribosomal protein S6 kinase alpha-5 (Homo sapiens) (UniProt O75582); assay: Inhibition of human N-terminal RPS6KA5 kinase domain 1 assessed as percent of control at 2000 nM by KINOMEscan assay relative to control; parameters: scale not given: the % may be the effect or the level left
[25] = target: Tyrosine-protein kinase Fyn (Homo sapiens) (UniProt P06241); assay: Inhibition of human FYN assessed as percent of control at 2000 nM by KINOMEscan assay relative to control; parameters: scale not given: the % may be the effect or the level left
[26] = target: Serine/threonine-protein kinase Nek1 (Homo sapiens) (UniProt Q96PY6); assay: Inhibition of human NEK1 assessed as percent of control at 2000 nM by KINOMEscan assay relative to control; parameters: scale not given: the % may be the effect or the level left
[27] = target: Rho-associated protein kinase 2 (Homo sapiens) (UniProt O75116); assay: Inhibition of human ROCK2 assessed as percent of control at 2000 nM by KINOMEscan assay relative to control; parameters: scale not given: the % may be the effect or the level left
[28] = system: Mast/stem cell growth factor receptor Kit (Homo sapiens), P10721 [D816V]; assay: Inhibition of human KIT D816V mutant assessed as percent of control at 2000 nM by KINOMEscan assay relative to control; parameters: scale not given: the % may be the effect or the level left
[29] = system: Hepatocyte growth factor receptor (Homo sapiens), P08581 [Y1235D]; assay: Inhibition of human MET Y1235D mutant assessed as percent of control at 2000 nM by KINOMEscan assay relative to control; parameters: scale not given: the % may be the effect or the level left

Sequence of Mast/stem cell growth factor receptor Kit (Homo sapiens) (P10721 whole entry): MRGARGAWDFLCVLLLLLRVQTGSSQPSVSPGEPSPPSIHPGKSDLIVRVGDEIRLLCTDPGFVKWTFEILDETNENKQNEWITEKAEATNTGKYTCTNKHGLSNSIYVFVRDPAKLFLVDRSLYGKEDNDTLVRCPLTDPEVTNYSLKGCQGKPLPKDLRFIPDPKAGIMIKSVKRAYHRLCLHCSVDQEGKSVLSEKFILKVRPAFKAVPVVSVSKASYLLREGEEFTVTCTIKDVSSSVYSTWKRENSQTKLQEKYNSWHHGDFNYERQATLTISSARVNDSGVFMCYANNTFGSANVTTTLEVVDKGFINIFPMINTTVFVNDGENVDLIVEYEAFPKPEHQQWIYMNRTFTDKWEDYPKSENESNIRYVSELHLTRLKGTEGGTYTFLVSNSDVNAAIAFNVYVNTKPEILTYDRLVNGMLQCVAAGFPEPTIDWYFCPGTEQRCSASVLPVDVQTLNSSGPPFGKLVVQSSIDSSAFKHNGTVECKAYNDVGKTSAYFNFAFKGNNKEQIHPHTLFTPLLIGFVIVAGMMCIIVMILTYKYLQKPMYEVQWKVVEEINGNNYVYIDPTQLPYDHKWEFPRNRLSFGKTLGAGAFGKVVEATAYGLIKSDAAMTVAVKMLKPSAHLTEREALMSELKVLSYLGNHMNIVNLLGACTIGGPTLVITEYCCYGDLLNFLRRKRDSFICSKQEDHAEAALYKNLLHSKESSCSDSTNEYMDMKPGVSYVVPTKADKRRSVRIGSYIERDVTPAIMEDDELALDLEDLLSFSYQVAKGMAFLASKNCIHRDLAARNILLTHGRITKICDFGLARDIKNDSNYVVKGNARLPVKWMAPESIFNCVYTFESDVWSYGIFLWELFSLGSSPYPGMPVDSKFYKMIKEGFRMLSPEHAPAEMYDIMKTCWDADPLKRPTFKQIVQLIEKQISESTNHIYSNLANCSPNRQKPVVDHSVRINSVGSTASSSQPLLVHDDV
Sequence of Mitogen-activated protein kinase 11 (Homo sapiens) (Q15759 whole entry): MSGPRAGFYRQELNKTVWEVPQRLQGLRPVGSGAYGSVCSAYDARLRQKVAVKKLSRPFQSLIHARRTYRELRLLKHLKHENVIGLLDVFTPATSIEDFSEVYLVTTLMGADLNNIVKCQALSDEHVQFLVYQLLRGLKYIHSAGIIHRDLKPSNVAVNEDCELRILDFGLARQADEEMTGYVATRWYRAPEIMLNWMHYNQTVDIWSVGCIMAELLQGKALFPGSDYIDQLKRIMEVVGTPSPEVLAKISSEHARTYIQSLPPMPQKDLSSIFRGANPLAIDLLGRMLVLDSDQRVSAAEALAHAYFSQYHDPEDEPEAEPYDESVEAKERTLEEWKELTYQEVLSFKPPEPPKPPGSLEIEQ
Sequence of Serine/threonine-protein kinase DCLK2 (Homo sapiens) (Q8N568 whole entry): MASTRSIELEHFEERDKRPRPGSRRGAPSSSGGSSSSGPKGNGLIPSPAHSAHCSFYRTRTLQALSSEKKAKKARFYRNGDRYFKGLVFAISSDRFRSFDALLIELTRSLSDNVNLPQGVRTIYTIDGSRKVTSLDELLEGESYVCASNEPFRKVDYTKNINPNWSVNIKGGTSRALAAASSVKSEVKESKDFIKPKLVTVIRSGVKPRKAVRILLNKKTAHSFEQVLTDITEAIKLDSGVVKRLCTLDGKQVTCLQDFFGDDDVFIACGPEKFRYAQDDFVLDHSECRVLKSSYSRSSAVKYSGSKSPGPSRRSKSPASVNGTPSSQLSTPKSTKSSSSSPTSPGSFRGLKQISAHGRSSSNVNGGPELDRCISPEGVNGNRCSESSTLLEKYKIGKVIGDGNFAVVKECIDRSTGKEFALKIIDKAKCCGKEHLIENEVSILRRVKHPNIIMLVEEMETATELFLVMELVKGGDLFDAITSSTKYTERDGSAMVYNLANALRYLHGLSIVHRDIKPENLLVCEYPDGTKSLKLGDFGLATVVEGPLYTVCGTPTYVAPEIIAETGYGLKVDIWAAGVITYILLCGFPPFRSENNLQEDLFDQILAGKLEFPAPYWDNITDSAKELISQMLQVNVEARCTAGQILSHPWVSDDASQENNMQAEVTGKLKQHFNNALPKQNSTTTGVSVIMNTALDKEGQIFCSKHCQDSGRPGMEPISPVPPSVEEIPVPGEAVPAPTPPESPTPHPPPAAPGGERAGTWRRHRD
Sequence of Receptor tyrosine-protein kinase erbB-3 (Homo sapiens) (P21860 whole entry): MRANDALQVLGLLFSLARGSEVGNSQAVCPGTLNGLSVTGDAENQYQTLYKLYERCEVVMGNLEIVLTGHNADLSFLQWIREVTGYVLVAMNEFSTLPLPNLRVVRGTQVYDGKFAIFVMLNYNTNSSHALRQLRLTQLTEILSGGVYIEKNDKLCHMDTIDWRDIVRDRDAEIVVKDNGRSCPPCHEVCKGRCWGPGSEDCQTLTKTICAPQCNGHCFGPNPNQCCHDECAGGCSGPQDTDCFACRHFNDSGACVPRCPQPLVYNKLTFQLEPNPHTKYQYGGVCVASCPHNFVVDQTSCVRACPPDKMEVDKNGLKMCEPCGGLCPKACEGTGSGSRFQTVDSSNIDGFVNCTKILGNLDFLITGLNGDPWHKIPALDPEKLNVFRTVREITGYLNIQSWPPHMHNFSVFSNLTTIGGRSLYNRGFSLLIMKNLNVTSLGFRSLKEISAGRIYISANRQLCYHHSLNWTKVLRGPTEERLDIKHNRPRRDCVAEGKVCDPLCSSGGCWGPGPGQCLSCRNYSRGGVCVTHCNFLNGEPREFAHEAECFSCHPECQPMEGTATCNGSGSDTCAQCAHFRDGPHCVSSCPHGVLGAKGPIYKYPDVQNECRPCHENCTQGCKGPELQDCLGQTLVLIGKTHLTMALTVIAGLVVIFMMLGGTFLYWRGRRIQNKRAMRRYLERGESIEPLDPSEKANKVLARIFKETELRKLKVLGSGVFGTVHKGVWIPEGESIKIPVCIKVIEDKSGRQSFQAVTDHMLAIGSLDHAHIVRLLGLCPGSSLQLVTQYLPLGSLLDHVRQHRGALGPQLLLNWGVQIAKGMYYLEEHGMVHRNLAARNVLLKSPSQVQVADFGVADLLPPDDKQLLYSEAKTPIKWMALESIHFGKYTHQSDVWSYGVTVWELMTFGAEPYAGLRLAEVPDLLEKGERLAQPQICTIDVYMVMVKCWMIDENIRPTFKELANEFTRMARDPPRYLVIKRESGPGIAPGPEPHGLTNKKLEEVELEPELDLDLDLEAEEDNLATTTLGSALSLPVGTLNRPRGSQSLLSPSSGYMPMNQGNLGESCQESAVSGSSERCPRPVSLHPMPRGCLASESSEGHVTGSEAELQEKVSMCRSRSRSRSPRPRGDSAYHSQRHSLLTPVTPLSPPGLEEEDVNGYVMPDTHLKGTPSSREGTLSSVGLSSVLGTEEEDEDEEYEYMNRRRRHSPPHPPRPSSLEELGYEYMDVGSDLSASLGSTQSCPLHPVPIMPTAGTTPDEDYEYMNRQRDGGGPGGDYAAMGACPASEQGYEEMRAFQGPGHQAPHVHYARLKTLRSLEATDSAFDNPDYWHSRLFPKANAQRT
Sequence of Dual specificity protein kinase CLK3 (Homo sapiens) (P49761 whole entry, looked up): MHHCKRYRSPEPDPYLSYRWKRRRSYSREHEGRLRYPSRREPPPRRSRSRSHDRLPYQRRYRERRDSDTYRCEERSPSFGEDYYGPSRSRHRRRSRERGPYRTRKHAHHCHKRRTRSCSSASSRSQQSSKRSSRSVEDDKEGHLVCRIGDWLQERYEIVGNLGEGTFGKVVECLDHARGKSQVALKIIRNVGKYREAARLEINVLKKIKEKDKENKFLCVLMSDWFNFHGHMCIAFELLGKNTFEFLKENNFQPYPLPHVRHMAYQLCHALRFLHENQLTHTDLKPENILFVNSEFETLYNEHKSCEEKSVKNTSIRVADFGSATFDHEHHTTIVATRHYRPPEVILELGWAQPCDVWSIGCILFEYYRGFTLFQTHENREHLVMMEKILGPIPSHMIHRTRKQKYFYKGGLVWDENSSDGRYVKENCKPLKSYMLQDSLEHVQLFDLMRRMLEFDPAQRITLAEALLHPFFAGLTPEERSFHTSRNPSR
Sequence of Ribosomal protein S6 kinase alpha-4 (Homo sapiens) (O75676 whole entry, looked up, the tested form may be a part): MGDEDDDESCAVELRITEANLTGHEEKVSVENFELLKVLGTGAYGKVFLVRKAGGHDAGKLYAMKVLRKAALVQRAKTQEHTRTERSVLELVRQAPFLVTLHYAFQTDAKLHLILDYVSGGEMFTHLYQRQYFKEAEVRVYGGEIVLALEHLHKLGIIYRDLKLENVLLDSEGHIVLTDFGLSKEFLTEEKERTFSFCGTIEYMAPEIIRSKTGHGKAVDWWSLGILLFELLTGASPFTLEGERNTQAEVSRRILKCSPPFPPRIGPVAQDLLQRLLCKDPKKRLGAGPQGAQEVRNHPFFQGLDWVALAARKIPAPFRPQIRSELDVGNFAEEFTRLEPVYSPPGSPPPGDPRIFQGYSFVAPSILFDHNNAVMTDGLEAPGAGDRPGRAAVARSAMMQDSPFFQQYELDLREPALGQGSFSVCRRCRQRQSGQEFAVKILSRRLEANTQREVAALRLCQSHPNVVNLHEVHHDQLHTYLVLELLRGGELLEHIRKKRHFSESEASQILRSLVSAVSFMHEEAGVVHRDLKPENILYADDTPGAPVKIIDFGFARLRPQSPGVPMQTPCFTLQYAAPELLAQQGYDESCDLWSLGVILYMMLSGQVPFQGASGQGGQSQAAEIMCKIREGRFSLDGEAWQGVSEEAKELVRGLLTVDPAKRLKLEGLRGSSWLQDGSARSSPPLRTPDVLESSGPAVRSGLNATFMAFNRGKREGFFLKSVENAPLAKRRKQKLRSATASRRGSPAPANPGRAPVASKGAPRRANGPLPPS
Sequence of Mast/stem cell growth factor receptor Kit (Homo sapiens), P10721 [D816V] (P10721 whole entry D816V): as the sequence (P10721 whole entry) above, with D816V counted along it
Sequence of Mast/stem cell growth factor receptor Kit (Homo sapiens), P10721 [V559D,V654A] (P10721 whole entry V559D/V654A): as the sequence (P10721 whole entry) above, with V559D, V654A counted along it

SMILES: CN(C)C(=O)c1ccc(N2CCCN(c3ccnc4sc(C(N)=O)c(N)c34)CC2)cc1
- Activity [1]: 95% and 97%
- Activity [2]: 96% and 100%
- Activity [3]: 92%
- Activity [4]: 91% and 94%
- Activity [5]: 95%
- Activity [6]: 100%
- Activity [7]: 100% and 88%
- Activity [8]: 94% and 97%
- Activity [9]: 100% and 88%
- Activity [10]: 90% and 78%
- Activity [11]: 100% and 87%
- Activity [12]: 89% and 87%
- Activity [13]: 93% and 94%
- Activity [14]: 91% and 90%
- Activity [15]: 91% and 85%
- Activity [16]: 93% and 78%
- Activity (CWR22R): Active
- Activity [17]: 100% and 97%
- Activity [18]: 100%
- Activity [19]: 100% and 95%
- Activity [20]: 100%
- Activity [21]: 94% and 100%
- Activity [22]: 78% and 92%
- Activity [23]: 100%
- Activity ([23]; INHIBITOR): 46%
- Activity [24]: 75% and 100%
- Activity [25]: 99% and 97%
- Activity [26]: 80% and 96%
- Activity [27]: 100% and 80%
- Activity [28]: 93% and 79%
- Activity [29]: 100%
